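Each compound was tested at five concentrations against cells in 96-well plates for 48 hours. GI50 = concentration required for 50% inhibition of growth.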 Calls of active or inactive are those of the source. Rule as the data show it: active = GI50 up to about 1.1 µM and inactive = higher.
Tests used:
Experiment in all cases: NCI tumour cell line growth inhibition, 48 h
[1] = tested on: RPMI-8226
[2] = tested on: MDA-MB-435
[3] = tested on: KM12
[4] = tested on: COLO 205
[5] = tested on: CAKI-1
[6] = tested on: MDA-N
[7] = tested on: NCI-H522
[8] = tested on: SK-OV-3
[9] = tested on: T47D
[10] = tested on: MDA-MB-231
[11] = tested on: OVCAR-4
[12] = tested on: SF-539
[13] = tested on: SW-620
[14] = tested on: UACC-62
[15] = tested on: SK-MEL-28
[16] = tested on: SR
[17] = tested on: OVCAR-3
[18] = tested on: UACC-257
[19] = tested on: M14
[20] = tested on: K562

SMILES	GI50 [1]	GI50 [2]	GI50 [3]	GI50 [4]	GI50 [5]	GI50 [6]	GI50 [7]	GI50 [8]	GI50 [9]	GI50 [10]	GI50 [11]	GI50 [12]	GI50 [13]	GI50 [14]	GI50 [15]	GI50 [16]	GI50 [17]	GI50 [18]	GI50 [19]	GI50 [20]
COC(=O)/C=C/CC(=O)NS(C)(=O)=O	> 10 µM (inactive)	> 10 µM (inactive)	> 10 µM (inactive)	> 10 µM (inactive)	> 10 µM (inactive)	> 10 µM (inactive)	> 10 µM (inactive)	> 10 µM (inactive)	> 10 µM (inactive)	> 10 µM (inactive)	> 10 µM (inactive)	> 10 µM (inactive)	> 10 µM (inactive)	> 10 µM (inactive)	> 10 µM (inactive)	> 10 µM (inactive)	> 10 µM (inactive)	> 10 µM (inactive)	> 10 µM (inactive)	–
O=c1cc(-c2ccccc2)nc(-n2[nH]c3c(c2=O)CCCC3)[nH]1	4.17 µM (inactive)	4.59 µM (inactive)	13.3 µM (inactive)	3.82 µM (inactive)	7.18 µM (inactive)	7.29 µM (inactive)	12.1 µM (inactive)	17.4 µM (inactive)	1.56 µM (inactive)	2.92 µM (inactive)	1.85 µM (inactive)	4.98 µM (inactive)	4.24 µM (inactive)	2.32 µM (inactive)	4.29 µM (inactive)	1.03 µM (active)	–	5.86 µM (inactive)	5.68 µM (inactive)	2.83 µM (inactive)
CC1CCC2C(C)C(OC(=O)CCC(=O)O)OC3OC4(C)CCC1C32OO4 (stereo not given)	0.246 µM (active)	1.51 µM (inactive)	1.33 µM (inactive)	1.42 µM (inactive)	12.1 µM (inactive)	2.65 µM (inactive)	–	53.6 µM (inactive)	0.828 µM (active)	> 100 µM (inactive)	7.01 µM (inactive)	11 µM (inactive)	1.57 µM (inactive)	6.15 µM (inactive)	37.5 µM (inactive)	0.519 µM (active)	5.52 µM (inactive)	2.17 µM (inactive)	17.2 µM (inactive)	1.32 µM (inactive)
CC1OC(OC2C(O[C@H]3CC[C@@]4(C)C(=CC[C@H]5[C@@H]6C[C@@H]7O[C@]8(CC[C@H](C)CN8)[C@@H](C)[C@@H]7[C@@]6(C)CC[C@@H]54)C3)OC(CO)C(O)C2OC2OC(CO)C(O)C(O)C2O)C(O)C(O)C1O (stereo not given in full)	–	23.5 µM (inactive)	20 µM (inactive)	17.9 µM (inactive)	19.2 µM (inactive)	20.7 µM (inactive)	12.8 µM (inactive)	16.9 µM (inactive)	19.5 µM (inactive)	21.4 µM (inactive)	19.8 µM (inactive)	16.7 µM (inactive)	19.2 µM (inactive)	17.6 µM (inactive)	19.1 µM (inactive)	29 µM (inactive)	–	18.2 µM (inactive)	18.4 µM (inactive)	> 10 µM (inactive)
COC(=O)C1(Cc2ccccc2)Cc2ccccc2C1=O (stereo not given)	35 µM (inactive)	22.6 µM (inactive)	27.7 µM (inactive)	49.9 µM (inactive)	83 µM (inactive)	32.1 µM (inactive)	–	> 100 µM (inactive)	43.1 µM (inactive)	83.6 µM (inactive)	25.4 µM (inactive)	> 100 µM (inactive)	55 µM (inactive)	67.3 µM (inactive)	65.9 µM (inactive)	23.8 µM (inactive)	39.3 µM (inactive)	45.8 µM (inactive)	32.5 µM (inactive)	35 µM (inactive)
CC1CCCCN1CC(=O)c1ccc2c(c1)Sc1ccccc1O2 (stereo not given)	> 100 µM (inactive)	13.8 µM (inactive)	16.5 µM (inactive)	24 µM (inactive)	17.9 µM (inactive)	15.2 µM (inactive)	–	16.4 µM (inactive)	20.7 µM (inactive)	24.7 µM (inactive)	13.2 µM (inactive)	16.9 µM (inactive)	19.1 µM (inactive)	13.3 µM (inactive)	16.6 µM (inactive)	15.3 µM (inactive)	14.4 µM (inactive)	18.4 µM (inactive)	19.5 µM (inactive)	30.3 µM (inactive)
CCOC(=O)C1C(c2ccc(OC)cc2)c2c(n[nH]c2O)CC1(O)OCC (stereo not given)	> 100 µM (inactive)	> 100 µM (inactive)	> 100 µM (inactive)	> 100 µM (inactive)	> 100 µM (inactive)	> 100 µM (inactive)	> 100 µM (inactive)	–	> 100 µM (inactive)	> 100 µM (inactive)	> 100 µM (inactive)	> 100 µM (inactive)	> 100 µM (inactive)	> 100 µM (inactive)	> 100 µM (inactive)	> 100 µM (inactive)	> 100 µM (inactive)	> 100 µM (inactive)	> 100 µM (inactive)	–
Cc1ccc2c(c1)C(=S)N1CSCC1c1nncn1-2 (stereo not given)	> 100 µM (inactive)	> 100 µM (inactive)	> 100 µM (inactive)	> 100 µM (inactive)	> 100 µM (inactive)	> 100 µM (inactive)	> 100 µM (inactive)	> 100 µM (inactive)	> 100 µM (inactive)	> 100 µM (inactive)	> 100 µM (inactive)	–	> 100 µM (inactive)	> 100 µM (inactive)	> 100 µM (inactive)	> 100 µM (inactive)	> 100 µM (inactive)	> 100 µM (inactive)	> 100 µM (inactive)	> 100 µM (inactive)
CCN(CC)C(=S)SC1C(=O)NC(=O)NC1=O	> 100 µM (inactive)	> 100 µM (inactive)	> 100 µM (inactive)	> 100 µM (inactive)	> 100 µM (inactive)	> 100 µM (inactive)	> 100 µM (inactive)	> 100 µM (inactive)	> 100 µM (inactive)	> 100 µM (inactive)	> 100 µM (inactive)	> 100 µM (inactive)	> 100 µM (inactive)	> 100 µM (inactive)	> 100 µM (inactive)	> 100 µM (inactive)	> 100 µM (inactive)	> 100 µM (inactive)	–	> 100 µM (inactive)
Cc1ccc(N2C(=O)C=C(C3=C(O)C(=O)N(c4ccc(C)cc4)C3=O)C2=O)cc1	> 100 µM (inactive)	> 100 µM (inactive)	–	> 100 µM (inactive)	–	> 100 µM (inactive)	–	> 100 µM (inactive)	> 100 µM (inactive)	> 100 µM (inactive)	> 100 µM (inactive)	–	> 100 µM (inactive)	> 100 µM (inactive)	> 100 µM (inactive)	> 100 µM (inactive)	> 100 µM (inactive)	> 100 µM (inactive)	> 100 µM (inactive)	> 100 µM (inactive)
COC(=O)CCC1(C)C2CCC1/C(=N/O)C2 (stereo not given)	> 100 µM (inactive)	> 100 µM (inactive)	> 100 µM (inactive)	> 100 µM (inactive)	> 100 µM (inactive)	> 100 µM (inactive)	> 100 µM (inactive)	> 100 µM (inactive)	> 100 µM (inactive)	> 100 µM (inactive)	> 100 µM (inactive)	–	> 100 µM (inactive)	> 100 µM (inactive)	> 100 µM (inactive)	> 100 µM (inactive)	> 100 µM (inactive)	> 100 µM (inactive)	> 100 µM (inactive)	> 100 µM (inactive)
O=C(C/N=C(\CN(c1ccccc1)c1ccccc1)Oc1c([N+](=O)[O-])cc([N+](=O)[O-])cc1[N+](=O)[O-])N1CCNCC1	> 100 µM (inactive)	> 100 µM (inactive)	> 100 µM (inactive)	> 100 µM (inactive)	–	> 100 µM (inactive)	> 100 µM (inactive)	0.622 µM (active)	> 100 µM (inactive)	> 100 µM (inactive)	> 100 µM (inactive)	> 100 µM (inactive)	> 100 µM (inactive)	43 µM (inactive)	> 100 µM (inactive)	> 100 µM (inactive)	> 100 µM (inactive)	> 100 µM (inactive)	> 100 µM (inactive)	> 100 µM (inactive)
CCCCCC(/C=N/NC(N)=S)C(O)(C(F)(F)F)C(F)(F)F (stereo not given)	–	> 10 µM (inactive)	> 10 µM (inactive)	> 10 µM (inactive)	> 10 µM (inactive)	> 10 µM (inactive)	> 10 µM (inactive)	> 10 µM (inactive)	> 10 µM (inactive)	> 10 µM (inactive)	> 10 µM (inactive)	> 10 µM (inactive)	> 10 µM (inactive)	> 10 µM (inactive)	> 10 µM (inactive)	> 10 µM (inactive)	> 10 µM (inactive)	> 10 µM (inactive)	> 10 µM (inactive)	> 10 µM (inactive)
COc1cc(S(=O)(=O)Nc2nc(-c3ccc(N)cc3)cs2)ccc1Cl	–	83.6 µM (inactive)	72.1 µM (inactive)	32.1 µM (inactive)	73.5 µM (inactive)	55.8 µM (inactive)	56 µM (inactive)	97.9 µM (inactive)	38.5 µM (inactive)	> 100 µM (inactive)	34 µM (inactive)	> 100 µM (inactive)	> 100 µM (inactive)	28.4 µM (inactive)	69.3 µM (inactive)	61 µM (inactive)	54.3 µM (inactive)	57.3 µM (inactive)	59.8 µM (inactive)	58.2 µM (inactive)
O=C(O)CCNc1[nH]cnc2ncnc1-2	> 100 µM (inactive)	> 100 µM (inactive)	> 100 µM (inactive)	> 100 µM (inactive)	> 100 µM (inactive)	> 100 µM (inactive)	> 100 µM (inactive)	> 100 µM (inactive)	> 100 µM (inactive)	> 100 µM (inactive)	> 100 µM (inactive)	–	> 100 µM (inactive)	> 100 µM (inactive)	> 100 µM (inactive)	> 100 µM (inactive)	0.621 µM (active)	> 100 µM (inactive)	> 100 µM (inactive)	> 100 µM (inactive)
